Common to all, as to experiment: biochemical
Test [1] addresses T1, MMP-1 (Homo sapiens, UniProt P03956).
T1 construct: made in house; host or cells: transfected HT-1080 cells (provided by Dr. Harold Welgus, Washington University)
T1 sequence (P03956 100-469): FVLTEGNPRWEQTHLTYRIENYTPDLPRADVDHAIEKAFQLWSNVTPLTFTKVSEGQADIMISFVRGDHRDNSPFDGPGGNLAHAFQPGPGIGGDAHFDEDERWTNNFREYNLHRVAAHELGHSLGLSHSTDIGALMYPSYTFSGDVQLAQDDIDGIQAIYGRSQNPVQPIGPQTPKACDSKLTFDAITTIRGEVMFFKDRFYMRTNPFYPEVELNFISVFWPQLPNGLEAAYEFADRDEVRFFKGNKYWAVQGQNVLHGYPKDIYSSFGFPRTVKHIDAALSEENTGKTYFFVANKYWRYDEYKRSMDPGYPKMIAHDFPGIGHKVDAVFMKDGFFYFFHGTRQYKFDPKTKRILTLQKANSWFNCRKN
The settings on record: read-out: MMP-1 IC50. Put shortly:
(§1)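 Assay buffer 100 mM Tris-HCl, 100 mM NaCl, 10 mM CaCl2, pH 7.5. Activated MMP + inhibitor, 5 min RT; then methoxycoumarin peptide substrate, 4 μM final. Readout fluorescence; IC50 calculated.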

The target in test [2] is T2, MMP-13 (Homo sapiens, UniProt P45452).
T2 construct: made in house; host or cells: baculovirus / insect cells
The settings on record: read-out: MMP-13 IC50. Put shortly: as §1

Test [3] has as its target T3, MMP-2 (Homo sapiens, UniProt P08253).
T3 construct: made in house; provided by Dr. Gregory Goldberg, Washington University
T3 sequence (P08253 110-660): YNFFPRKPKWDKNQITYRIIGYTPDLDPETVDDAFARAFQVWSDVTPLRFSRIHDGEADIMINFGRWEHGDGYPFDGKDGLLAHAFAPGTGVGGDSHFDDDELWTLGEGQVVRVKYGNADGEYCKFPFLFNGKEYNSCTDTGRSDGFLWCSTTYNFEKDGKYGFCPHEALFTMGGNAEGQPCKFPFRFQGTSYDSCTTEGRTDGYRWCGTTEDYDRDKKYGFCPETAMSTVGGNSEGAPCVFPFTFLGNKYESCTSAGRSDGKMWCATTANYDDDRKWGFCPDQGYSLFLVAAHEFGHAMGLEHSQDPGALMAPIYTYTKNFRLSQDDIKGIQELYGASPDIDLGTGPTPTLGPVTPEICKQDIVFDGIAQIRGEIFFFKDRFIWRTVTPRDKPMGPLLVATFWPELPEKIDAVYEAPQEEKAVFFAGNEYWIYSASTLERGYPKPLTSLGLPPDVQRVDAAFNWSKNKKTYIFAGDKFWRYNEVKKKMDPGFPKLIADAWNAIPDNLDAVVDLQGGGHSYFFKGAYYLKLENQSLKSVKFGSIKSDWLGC
To be noted: read-out: MMP-2 IC50. The method, boiled down:
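APMA- or trypsin-activated human MMPs (MMP-1 from transfected HT-1080 cells, MMP-2 from transfected cells) preincubated with inhibitor in 1% DMSO at room temperature, then 4 μM MCA-Pro-Leu-Gly-Leu-Dpa-Ala-Arg-NH2 added in Tris/NaCl/CaCl2 buffer pH 7.5. IC50 from fluorescence reduction versus inhibitor concentration.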

[4] abbreviates: recombinant human MMP-1, MCA peptide substrate 4 μM, pH 7.5, room temperature.
The mark [5] stands for this setting: recombinant human MMP-13, MCA peptide substrate 4 μM, pH 7.5, room temperature.
Where [6] appears, read: recombinant human MMP-2, MCA peptide substrate 4 μM, pH 7.5, room temperature.

Where a name gives a salt, the structure may show the parent alone. Read-outs that look alike come from different tables or passages of the source. Some results are limits rather than exact numbers.

Broadly, the IC50 is the concentration at which inhibition is half-maximal.

Regarding `COc1cc(COC2CCN(c3ccc(S(=O)(=O)C4(C(=O)NO)CCOCC4)cc3)CC2)cc(OC)c1` [Example 178], the IC50 is greater than 10 µM in test [1] (setting [4]), 0.0181 µM in test [2] (setting [5]) and 0.325 µM in test [3] (setting [6]).

With `O=C(NO)C1(S(=O)(=O)c2ccc(N3CCC(OCc4ccc(F)c(F)c4)CC3)cc2)CCOCC1` [Example 179], the IC50 in test [1] (setting [4]) was greater than 10 µM; in test [2] (setting [5]), 0.0206 µM; in test [3] (setting [6]), 0.17 µM.

Turning to `N#Cc1ccc(COC2CCN(c3ccc(S(=O)(=O)C4(C(=O)NO)CCOCC4)cc3)CC2)cc1` [Example 180], the IC50 in test [1] (setting [4]) is greater than 10 µM; in test [2] (setting [5]) it was 0.0011 µM; in test [3] (setting [6]), 0.0418 µM.

In the case of `O=C(NO)C1(S(=O)(=O)c2ccc(N3CCC(OCc4ccccc4-c4ccccc4)CC3)cc2)CCOCC1` [Example 181], the IC50 in test [1] (setting [4]) is greater than 10 µM; in test [2] (setting [5]), 0.19 µM; in test [3] (setting [6]), 2.3 µM.

Regarding `O=C(NO)C1(S(=O)(=O)c2ccc(N3CCC(Oc4ccccc4)CC3)cc2)CCOCC1` [Example 185, N-Hydroxy-4[[[4-(4-phenoxy)piperidyl]phenyl]sulfonyl]-1-tetrahydropyrancarboxamide], the values for the IC50 in test [1] (setting [4]), in test [2] (setting [5]) and in test [3] (setting [6]) were greater than 10 µM, 0.0022 µM and 0.0326 µM, respectively.

As to `Cc1cc(C)cc(OC2CCN(c3ccc(S(=O)(=O)C4(C(=O)NO)CCOCC4)cc3)CC2)c1` [Example 187], the values for the IC50 in test [1] (setting [4]), in test [2] (setting [5]) and in test [3] (setting [6]) were greater than 10 µM, 0.01 µM and 0.6 µM, respectively.

As for `O=C(Nc1cccc(C(F)(F)F)c1)OC1CCN(c2ccc(S(=O)(=O)C3(C(=O)NO)CCOCC3)cc2)CC1` [Example 188, N-Hydroxy-4[[[4-[(3-trifluoromethyl)phenylcarbamoxy]piperidyl]phenyl]sulfonyl]-1-tetrahydropyrancarboxamide], the IC50 in test [1] (setting [4]) is greater than 10 µM; in test [2] (setting [5]) it was 0.007 µM; in test [3] (setting [6]), 0.235 µM.

For `CCOc1ccc(NC(=O)OC2CCN(c3ccc(S(=O)(=O)C4(C(=O)NO)CCOCC4)cc3)CC2)cc1` [Example 190], the IC50 is greater than 10 µM in test [1] (setting [4]), 0.0047 µM in test [2] (setting [5]) and 0.136 µM in test [3] (setting [6]).

On to `O=C(Nc1ccc(F)cc1)OC1CCN(c2ccc(S(=O)(=O)C3(C(=O)NO)CCOCC3)cc2)CC1` [Example 191], for which the values for the IC50 in test [1] (setting [4]), in test [2] (setting [5]) and in test [3] (setting [6]) were greater than 10 µM, 0.0035 µM and 0.0251 µM, respectively.

For `O=C(NO)C1(S(=O)(=O)c2ccc(Oc3ccc(OC(F)(F)F)cc3)cc2)CCN(S(=O)(=O)c2ccccc2)CC1` [Example 194], the concentration for half-maximal inhibition (IC50) is greater than 7.3 µM in test [1] (setting [4]), 0.0003 µM in test [2] (setting [5]) and less than 0.0001 µM in test [3] (setting [6]).

For the compound `O=C(NO)C1(S(=O)(=O)c2ccc(Oc3ccc(OC(F)(F)F)cc3)cc2)CCN(S(=O)(=O)Cc2ccccc2)CC1` [Example 195], the IC50 in test [1] (setting [4]) is greater than 10 µM; in test [2] (setting [5]), 0.001 µM; in test [3] (setting [6]), 0.0002 µM.

In the case of `O=C(NO)C1(S(=O)(=O)c2ccc(Oc3ccc(OC(F)(F)F)cc3)cc2)CCN(S(=O)(=O)c2cccc(C(F)(F)F)c2)CC1` [Example 196], the results for the IC50 in test [1] (setting [4]), in test [2] (setting [5]) and in test [3] (setting [6]) were greater than 10 µM, 0.0016 µM and less than 0.0001 µM, respectively.

With `O=C(NO)C1(S(=O)(=O)c2ccc(Oc3ccc(OC(F)(F)F)cc3)cc2)CCN(S(=O)(=O)C(F)(F)F)CC1` [Example 197], the IC50 is greater than 10 µM in test [1] (setting [4]), 0.0027 µM in test [2] (setting [5]) and less than 0.0001 µM in test [3] (setting [6]).

For `O=C(NO)C1(S(=O)(=O)c2ccc(Oc3ccc(OC(F)(F)F)cc3)cc2)CCN(C(=S)NCCN2CCOCC2)CC1` [Example 199], the IC50 in test [1] (setting [4]) was 3 µM; in test [2] (setting [5]) it was 0.0002 µM; in test [3] (setting [6]), less than 0.0001 µM.

Take `O=C(NO)C1(S(=O)(=O)c2ccc(Oc3ccc(OC(F)(F)F)cc3)cc2)CCN(C(=S)NCCN2CCCCC2)CC1` [Example 200]: the IC50 in test [1] (setting [4]) was 3 µM; in test [2] (setting [5]) it was 0.0002 µM; in test [3] (setting [6]), less than 0.0001 µM.

As to `O=C(NO)C1(S(=O)(=O)c2ccc(Oc3ccc(OC(F)(F)F)cc3)cc2)CCN(C(=S)Nc2cccnc2)CC1` [Example 201], the IC50 is greater than 10 µM in test [1] (setting [4]), 0.0003 µM in test [2] (setting [5]) and 0.0002 µM in test [3] (setting [6]).

Regarding `CN(C)c1ccc(NC(=S)N2CCC(C(=O)NO)(S(=O)(=O)c3ccc(Oc4ccc(OC(F)(F)F)cc4)cc3)CC2)cc1` [Example 202], the IC50 in test [1] (setting [4]) was greater than 10 µM; in test [2] (setting [5]), 0.0004 µM; in test [3] (setting [6]), 0.0002 µM.

As to `O=C(NO)C1(S(=O)(=O)c2ccc(N3CCC(c4ccccc4C(F)(F)F)CC3)cc2)CCOCC1` [Example 207], the IC50 in test [1] (setting [4]) was greater than 10 µM; in test [2] (setting [5]), 0.0288 µM; in test [3] (setting [6]), 0.9 µM.

`O=C(NO)C1(S(=O)(=O)c2ccc(N3CC=C(c4ccccc4C(F)(F)F)CC3)cc2)CCOCC1` [Example 208]: the IC50 was greater than 10 µM in test [1] (setting [4]), 0.11 µM in test [2] (setting [5]) and 1 µM in test [3] (setting [6]).

As for `O=C(NO)C1(S(=O)(=O)c2ccc(N3CCCCC3)cc2)CCOCC1` [Example 209], the values for the IC50 in test [1] (setting [4]), in test [2] (setting [5]) and in test [3] (setting [6]) were greater than 10 µM, 0.05 µM and 0.13 µM, respectively.

For `O=C(NO)C1(S(=O)(=O)c2ccc(N3CC=CCC3)cc2)CCOCC1` [Example 210], the IC50 in test [1] (setting [4]) came to 4 µM; in test [2] (setting [5]), 0.0054 µM; in test [3] (setting [6]), 0.0045 µM.

For `O=C(NO)C1(S(=O)(=O)c2ccc(N3CCC(n4c(=O)[nH]c5ccccc54)CC3)cc2)CCOCC1` [Example 211], the values for the IC50 in test [1], in test [2] (setting [5]) and in test [3] (setting [6]) were greater than 10 µM, 0.0114 µM and 1.2 µM, respectively.

Consider `O=C(NO)C1(S(=O)(=O)c2ccc(N3CCCCCC3)cc2)CCOCC1` [Example 212], for which the figures for the half-inhibitory concentration (IC50) in test [1] (setting [4]), in test [2] (setting [5]) and in test [3] (setting [6]) were greater than 10 µM, 0.16 µM and 0.24 µM, respectively.

On to `CN1CCCN(c2ccc(S(=O)(=O)C3(C(=O)NO)CCOCC3)cc2)CC1` [Example 213], for which the results for the IC50 in test [1] (setting [4]), in test [2] (setting [5]) and in test [3] (setting [6]) were greater than 10 µM, 1.4 µM and 2.7 µM, respectively.

With `CC1(C)CC2CC(C)(CN2c2ccc(S(=O)(=O)C3(C(=O)NO)CCOCC3)cc2)C1` (stereo not drawn) [Example 214], the 50% inhibitory concentration (IC50) in test [1] (setting [4]) is greater than 10 µM; in test [2] (setting [5]), 4.9 µM; in test [3] (setting [6]), 3.5 µM.

For `O=C(CS(=O)(=O)c1ccc(Oc2ccncc2)cc1)NO` [Example 227], the IC50 in test [1] (setting [4]) is greater than 10 µM; in test [2] (setting [5]), 0.0288 µM; in test [3] (setting [6]), 0.0217 µM.

For `Cc1ccc(N2CCC(C(=O)NO)(S(=O)(=O)c3ccc(Oc4ccc(OC(F)(F)F)cc4)cc3)CC2)cc1` [Example 229, N-Hydroxy-1-(4-methylphenyl)-4-[[4-[4-(trifluoromethoxy)phenoxy]phenyl]sulfonyl]-4-piperidinecarboxamide Monohydrochloride], the IC50 in test [1] (setting [4]) was greater than 10 µM; in test [2] (setting [5]) it was 0.00018 µM; in test [3] (setting [6]), 0.0001 µM.

For the compound `O=C(NO)C1(S(=O)(=O)c2ccc(Oc3ccc(SC(F)(F)F)cc3)cc2)CCNCC1` [Example 231, N-Hydroxy-4-[[4-[4-[(trifluoromethyl)thio]phenoxy]phenyl]-sulfonyl]-4-piperidinecarboxamide, Monohydrochloride], the IC50 was greater than 10 µM in test [1] (setting [4]), 0.0002 µM in test [2] (setting [5]) and 0.0001 µM in test [3] (setting [6]).

Consider `COCCN1CCC(C(=O)NO)(S(=O)(=O)c2ccc(N3CCC(C(=O)N4CC(C)CC(C)C4)CC3)cc2)CC1` (stereo not drawn) [Example 233, 4-[[4-[4-[(3,5-Dimethyl-1-piperidinyl)carbonyl]-1-piperidinyl]-phenyl]sulfonyl]-N-hydroxy-1-(2-methoxyethyl)-4-piperidinecarboxamide, Monohydrochloride], for which the IC50 in test [1] was greater than 10 µM; in test [2], 0.0435 µM; in test [3] it was 2.05 µM.
